# Data: US20060069132A1, “Azolecarboxamide herbicides” (priority 2004, published 2006)
# Experiments:
# blackgrass = assay: Test C postemergence herbicide test; type: in vivo, Alopecurus myosuroides; details: for Blackgrass plant response rating: 500 g ai/ha
# Procedure, shortened: (§1)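 Scoring by eye, 12–14 days post-treatment, greenhouse-held plants vs. controls; 0 no effect, 100 complete control. Sprayed at 1–4 leaves (2–18 cm); paddy barnyardgrass at 2 leaves, flooded.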
# chickweed = assay: Test C postemergence herbicide test; type: in vivo, Stellaria media
# Procedure, shortened: as §1
# wheat = assay: Test C postemergence herbicide test; type: in vivo, Triticum aestivum
# Procedure, shortened: as §1
# windgrass = assay: Test C postemergence herbicide test; type: in vivo, Apera spica-venti
# Procedure, shortened: as §1
# winter barley = assay: Test C postemergence herbicide test; type: in vivo, Hordeum vulgare; details: for Barley, Winter plant response rating: 500 g ai/ha, scale 0 to 100
# Procedure, shortened: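 Greenhouse test with a 12–14 day hold after application and visual comparison with controls. Emerged plants were 1- to 4-leaf stage (2–18 cm) when sprayed postemergence, and the paddy barnyardgrass was at 2 leaves under flooded conditions. 100 = complete control.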
# wild oat = assay: Test C postemergence herbicide test; type: in vivo, Avenafatua
# Procedure, shortened: as §1
# Italian ryegrass [1] = assay: Test C postemergence herbicide test; type: in vivo, Lolium multiflorum
# Procedure, shortened: as §1
# downy bromegrass = assay: Test C postemergence herbicide test; type: in vivo, Bromus tectorum
# Procedure, shortened: as §1
# canarygrass = assay: Test C postemergence herbicide test; type: in vivo, Phalaris minor
# Procedure, shortened: as §1
# goosegrass = assay: Test C pre-/postemergence herbicide test; type: in vivo, Eleusine indica
# Procedure, shortened: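 Preemergence: seeds planted and treated with compound in non-phytotoxic solvent with surfactant; postemergence: plants at 2 to 18 cm (1- to 4-leaf stage) sprayed likewise. Kept in greenhouse 12 to 14 days, then visually rated against controls, 0 (no effect) to 100 (complete control).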
# green foxtail = assay: Test C postemergence herbicide test; type: in vivo, Setaria viridis
# Procedure, shortened: as §1
# Italian ryegrass [2] = assay: Test E pre-/postemergence herbicide test; type: in vivo, Lolium multiflorum
# From the text: Seeds of plant species selected from bipinnate beggarticks (Bidens bipinnata L.), hairy beggarticks (Bidens radiata Thuill.), bermudagrass (Cynodon dactylon (L.) Pers.), Surinam grass (Urochloa decumbens (Staph) R. D. Webster, previously named Brachiaria decumbens Stapf), large crabgrass (Digitaria sanguinalis (L.) Scop.), green foxtail (Setaria viridis (L.) P. Beauv.), goosegrass (Eleusine indica (L.) Gaertn.), johnsongrass (Sorghum halepense (L.) Pers.), kochia (Kochia scoparia (L.) Schrad.), pitted morningglory (Ipomoea lacunosa L.), purple nutsedge (Cyperus rotundus L.), common ragweed (Ambrosia elatior L.), mustard (Brassica nigra (L.) W. D. J. Koch), guineagrass (Panicum maximum Jacq.), dallisgrass (Paspalum dilatatum Poir.), barnyardgrass (Echinochloa crus-galli (L). P. Beauv.), southern sandbur (Cenchrus echinatus L.), common sowthistle (Sonchus oleraceous L.), prickly sida (Sida spinosa L.), Italian ryegrass (Lolium multiflorum Lam.), common purslane (Portulaca oleracea L.), broadleaf signalgrass (Brachiaria platyphylla (Griseb.) Nash), common groundsel (Senecio vulgaris L.), common chickweed (Stellaria media (L.) Vill/Cyr.), tropical spiderwort (Commelina benghalensis L.), annual bluegrass (Poa annua L.), downy bromegrass (Bromus tectorum L.), itchgrass (Rottboellia cochinchinensis (L.) L.f.), quackgrass (Elytrigia repens (L.) Nevski), Canada horseweed (Erigeron Canadensis L.), field bindweed (Convolvulus arvensis L.), spotted spurge (Euphorbia maculata L.), common mallow (Malva sylvestris (=s silvestris) L.), and Russian thistle (Salsola kali L. ssp. Ruthenica (Iljin) Soo) were planted and treated preemergence with test chemicals formulated in a non-phytotoxic solvent mixture which included a surfactant.
# At the same time, plants selected from these weed species were treated with postemergence applications of some of the test chemicals formulated in the same manner. Plants ranged in height from 2 to 18 cm (1- to 4-leaf stage) for postemergence treatments. Treated plants and controls were maintained in a greenhouse for 12 to 14 days, after which time all species were compared to controls and visually evaluated. Plant response ratings, summarized in Table E, are based on a scale of 0 to 100 where 0 is no effect and 100 is complete control. A dash (-) response means no test result.
# [3] = Postemergence, 250 g ai/ha, scale 0 to 100, 0 no effect, 100 complete control
# [4] = postemergence, 125 g ai/ha, scale 0 to 100
# [5] = postemergence, 62 g ai/ha, scale 0 to 100
# [6] = Postemergence, 500 g ai/ha, scale 0 to 100
# [7] = postemergence, 125 g ai/ha, scale 0 to 100 (0 no effect, 100 complete control)
# [8] = postemergence, 62 g ai/ha, scale 0 to 100 (0 no effect, 100 complete control)
# [9] = Postemergence, 250 g ai/ha, scale 0 to 100
# [10] = Preemergence, 62 g ai/ha, scale 0 to 100
# [11] = Preemergence, 125 g ai/ha, scale 0 to 100
# [12] = Preemergence, 250 g ai/ha, scale 0 (no effect) to 100 (complete control)
# [13] = Preemergence, 500 g ai/ha, scale 0 (no effect) to 100 (complete control)
# [14] = 62 g ai/ha, preemergence, scale 0 to 100
# [15] = Preemergence, 500 g ai/ha, scale 0 to 100, 0 no effect, 100 complete control
# [16] = Postemergence, 500 g ai/ha, scale 0 to 100, 0 no effect, 100 complete control
# [17] = 250 g ai/ha, scale 0-100, preemergence
# [18] = 500 g ai/ha, scale 0 to 100 (0 no effect, 100 complete control), visual, 12 to 14 days, preemergence
smiles,measurement,setting,value
CCn1nc(C(C)(C)C)cc1C(=O)Nc1cccc(OC(F)(F)F)c1 [Compound 272],Blackgrass plant response rating,"blackgrass; Postemergence, scale 0 to 100",65
same,"Plant response rating, Blackgrass",blackgrass; [3],45
same,"Plant response rating, Blackgrass",blackgrass; [4],45
same,"Plant response rating, Blackgrass",blackgrass; [5],35
same,Chickweed plant response rating,chickweed; [6],100
same,"Plant response rating, Chickweed",chickweed; [3],100
same,"Plant response rating, Chickweed",chickweed; [4],100
same,"Plant response rating, Chickweed",chickweed; [5],95
same,Wheat plant response rating,wheat; [6],35
same,"Plant response rating, Wheat",wheat; [3],35
same,"Plant response rating, Wheat",wheat; [4],35
same,"Plant response rating, Wheat",wheat; [5],30
same,Windgrass plant response rating,windgrass; [6],85
same,"Plant response rating, Windgrass",windgrass; [4],70
same,"Plant response rating, Windgrass",windgrass; [5],60
same,"Barley, Winter plant response rating",winter barley; Postemergence,35
same,"Plant response rating, Barley, Winter",winter barley; [3],35
same,"Plant response rating, Barley, Winter",winter barley; [7],35
same,"Plant response rating, Barley, Winter",winter barley; [8],35
same,"Oat, Wild plant response rating",wild oat; [6],65
same,"Plant response rating, Oat, Wild",wild oat; [3],55
same,"Plant response rating, Oat, Wild",wild oat; [4],45
same,"Plant response rating, Oat, Wild",wild oat; [5],40
same,"Ryegrass, Italian plant response rating",Italian ryegrass [1]; [6],60
same,"Plant response rating, Ryegrass, Italian",Italian ryegrass [1]; [3],45
same,"Plant response rating, Ryegrass, Italian",Italian ryegrass [1]; [4],45
same,"Plant response rating, Ryegrass, Italian",Italian ryegrass [1]; [5],30
same,"Bromegrass, Downy plant response rating",downy bromegrass; [6],65
same,"Plant response rating, Bromegrass, Downy",downy bromegrass; [3],60
same,"Plant response rating, Bromegrass, Downy",downy bromegrass; [4],55
same,"Plant response rating, Bromegrass, Downy",downy bromegrass; [5],30
same,Canarygrass plant response rating,canarygrass; [6],55
same,"Plant response rating, Canarygrass",canarygrass; [3],40
same,"Plant response rating, Canarygrass",canarygrass; [4],35
same,"Plant response rating, Canarygrass",canarygrass; [5],35
same,Goosegrass plant response rating,goosegrass; [6],80
same,"Plant response rating, Goosegrass",goosegrass; [3],75
same,"Plant response rating, Goosegrass",goosegrass; [4],65
same,"Plant response rating, Goosegrass",goosegrass; [5],20
same,"Foxtail, Green plant response rating",green foxtail; [6],60
same,"Plant response rating, Foxtail, Green",green foxtail; [3],45
same,"Plant response rating, Foxtail, Green",green foxtail; [4],40
same,"Plant response rating, Foxtail, Green",green foxtail; [5],35
CCNC(=O)c1ccnc(NC(=O)c2cc(C(C)(C)C)nn2CC)c1 [Compound 152],"Plant response rating, Ryegrass, Italian",Italian ryegrass [2]; [6],90
same,"Plant response rating, Ryegrass, Italian",Italian ryegrass [2]; [9],90
same,"Plant response rating, Ryegrass, Italian",Italian ryegrass [2]; [10],20
same,"Plant response rating, Ryegrass, Italian",Italian ryegrass [2]; [11],50
same,"Plant response rating, Ryegrass, Italian",Italian ryegrass [2]; [12],80
same,"Plant response rating, Ryegrass, Italian",Italian ryegrass [2]; [13],95
same,"Plant response rating, Ryegrass, Italian",Italian ryegrass [2]; [4],90
same,"Plant response rating, Goosegrass",goosegrass; [14],80
same,"Plant response rating, Goosegrass","goosegrass; 125 g ai/ha, scale 0 (no effect) to 100 (complete control), visual, 12 to 14 days, preemergence",100
same,Goosegrass plant response rating,goosegrass; [15],100
Cc1nn(C(C)(C)C)nc1C(=O)Nc1cccc(C(=O)N(C)C)c1 [Compound 391],Blackgrass plant response rating,"blackgrass; Postemergence, scale 0 to 100",65
same,"Plant response rating, Blackgrass",blackgrass; [3],55
same,"Plant response rating, Blackgrass",blackgrass; [4],45
same,"Plant response rating, Blackgrass",blackgrass; [5],40
same,"Plant response rating, Wheat",wheat; [16],35
same,"Plant response rating, Wheat",wheat; [4],20
same,"Plant response rating, Wheat",wheat; [5],0
same,"Plant response rating, Windgrass",windgrass; [16],70
same,"Plant response rating, Windgrass",windgrass; [4],65
same,"Plant response rating, Windgrass",windgrass; [5],60
same,"Barley, Winter plant response rating",winter barley; Postemergence,30
same,"Plant response rating, Barley, Winter",winter barley; [3],30
same,"Plant response rating, Barley, Winter",winter barley; [7],10
same,"Plant response rating, Barley, Winter",winter barley; [8],10
same,"Plant response rating, Ryegrass, Italian",Italian ryegrass [2]; [11],80
same,"Plant response rating, Ryegrass, Italian",Italian ryegrass [2]; [12],95
same,"Plant response rating, Ryegrass, Italian",Italian ryegrass [2]; [13],95
same,"Plant response rating, Oat, Wild",wild oat; [16],65
same,"Plant response rating, Oat, Wild",wild oat; [4],40
same,"Plant response rating, Oat, Wild",wild oat; [5],30
same,"Plant response rating, Ryegrass, Italian",Italian ryegrass [1]; [16],65
same,"Plant response rating, Ryegrass, Italian",Italian ryegrass [1]; [4],40
same,"Plant response rating, Ryegrass, Italian",Italian ryegrass [1]; [5],35
same,"Plant response rating, Bromegrass, Downy",downy bromegrass; [3],55
same,"Plant response rating, Bromegrass, Downy",downy bromegrass; [16],65
same,"Plant response rating, Bromegrass, Downy",downy bromegrass; [4],45
same,"Plant response rating, Bromegrass, Downy",downy bromegrass; [5],45
same,"Plant response rating, Canarygrass",canarygrass; [3],60
same,"Plant response rating, Canarygrass",canarygrass; [16],65
same,"Plant response rating, Canarygrass",canarygrass; [4],40
same,"Plant response rating, Canarygrass",canarygrass; [5],40
same,"Plant response rating, Goosegrass",goosegrass; [14],80
same,"Plant response rating (0 = no effect, 100 = complete control), Goosegrass","goosegrass; 125 g ai/ha, preemergence",85
same,"Plant response rating, Goosegrass",goosegrass; [17],90
same,"Plant response rating, Goosegrass",goosegrass; [18],95
same,"Plant response rating, Foxtail, Green",green foxtail; [3],60
same,"Plant response rating, Foxtail, Green",green foxtail; [16],65
same,"Plant response rating, Foxtail, Green",green foxtail; [4],55
same,"Plant response rating, Foxtail, Green",green foxtail; [5],55
CCc1nn(C(C)(C)CC)nc1C(=O)Nc1cccc(C(=O)N(C)C)c1 [Compound 372],"Plant response rating, Ryegrass, Italian",Italian ryegrass [2]; [10],60
same,"Plant response rating, Ryegrass, Italian",Italian ryegrass [2]; [11],70
same,"Plant response rating, Ryegrass, Italian",Italian ryegrass [2]; [12],95
same,"Plant response rating, Ryegrass, Italian",Italian ryegrass [2]; [13],95
same,"Plant response rating, Goosegrass",goosegrass; [14],70
same,"Plant response rating (0 = no effect, 100 = complete control), Goosegrass","goosegrass; 125 g ai/ha, preemergence",80
same,"Plant response rating, Goosegrass",goosegrass; [17],90
same,"Plant response rating, Goosegrass",goosegrass; [18],90
"CCn1nc(C(C)(C)C)cc1C(=O)Nc1cc(C(=O)N(C)C)ccc1F [Compound 6, N-[5-[(dimethylamino)carbonyl]-2-fluorophenyl]-3-(1,1-dimethylethyl)-1-ethyl-1H-pyrazole-5-carboxamide]","Plant response rating, Ryegrass, Italian",Italian ryegrass [2]; [6],98
same,"Plant response rating, Ryegrass, Italian",Italian ryegrass [2]; [9],98
same,"Plant response rating, Ryegrass, Italian",Italian ryegrass [2]; [10],90
same,"Plant response rating, Ryegrass, Italian","Italian ryegrass [2]; Preemergence, 125 g ai/ha, scale 0 (no effect) to 100 (complete control)",95
same,"Plant response rating, Ryegrass, Italian",Italian ryegrass [2]; [13],100
same,"Plant response rating, Ryegrass, Italian",Italian ryegrass [2]; [4],95
same,"Plant response rating, Ryegrass, Italian",Italian ryegrass [2]; [5],80
same,"Plant response rating (0 = no effect, 100 = complete control), Goosegrass","goosegrass; 62 g ai/ha, preemergence",85
same,pest or weed control at 125 g/ha,"goosegrass; Eleusine indica, pre-emergence, 312 h, 125 g ai/ha, scale 0-100, read-out: Plant response rating, Goosegrass",100%
same,pest or weed control at 250 g/ha,"goosegrass; Eleusine indica, pre-emergence, 312 h, 250 g ai/ha, scale 0 to 100 (0 no effect, 100 complete control), visual, 12 to 14 days, read-out: Plant response rating, Goosegrass",100%
same,Goosegrass plant response rating,goosegrass; [15],100
